US20240247024A1, “INHIBITORS OF NICOTINAMIDE N-METHYL TRANSFERASE (NNMT)” (UNIVERSITEIT LEIDEN, priority 2021, published 2024)
Values joined by “and” are separate entries in the source; they are usually repeats but may differ in a detail not shown here. Equal values may be shown once. Read-outs that look alike come from different tables or passages of the source. Blank lines part the entries; values can stand above or below the molecule they belong to.

Molecular target: T1, NNMT (Homo sapiens, UniProt P40261)
T1 sequence (P40261 1-264): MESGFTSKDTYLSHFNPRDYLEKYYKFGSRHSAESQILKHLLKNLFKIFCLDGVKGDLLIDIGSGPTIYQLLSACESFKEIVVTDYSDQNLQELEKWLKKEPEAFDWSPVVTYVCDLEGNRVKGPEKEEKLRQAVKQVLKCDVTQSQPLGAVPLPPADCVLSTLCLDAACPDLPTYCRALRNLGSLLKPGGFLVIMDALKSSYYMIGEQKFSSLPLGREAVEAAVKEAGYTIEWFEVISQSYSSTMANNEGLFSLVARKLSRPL
Assay: NNMT assay (HILIC-MS/MS, formation of MNA)
Conditions: NA 200 μM, SAM 8.5 μM, maximum concentration tested 25 μM

[1] = read-out: IC50 values, Table 1, alkene linked aromatics
[2] = IC50 values (nM), Table 6, amino acid replacement
[3] = IC50 values (μM), Table 6, amino acid replacement
[4] = IC50 values (nM), Table 1, alkene linked aromatics
[5] = IC50 values (μM), Table 1, alkene linked aromatics

Compound: Nc1ncnc2c1ncn2[C@@H]1O[C@H](CN(C/C=C/c2ccc(B(O)O)cc2)CC[C@H](N)C(=O)O)[C@@H](O)[C@H]1O [GYZ-732]
IC50 [1]: > 25000 nM

Compound: Nc1ncnc2c1ncn2[C@@H]1O[C@H](CN(C/C=C/c2ccc(S(=O)(=O)F)cc2)CC[C@H](N)C(=O)O)[C@@H](O)[C@H]1O [GYZ-736]
IC50 [1]: 68 nM and 67.9 nM

Compound: NC(=O)c1cc(/C=C/CN(CC[C@H](N)C(=O)O)C[C@H]2O[C@@H](n3cnc4c(N)ncnc43)[C@H](O)[C@@H]2O)ccc1Br [GYZ-739]
IC50 [1]: 7 nM and 6.8 nM

Compound: N#Cc1ccc(/C=C/CN(C/C=C/c2ccc(S(=O)(=O)F)cc2)C[C@H]2O[C@@H](n3cnc4c(N)ncnc43)[C@H](O)[C@@H]2O)cc1 [GYZ-743]
IC50 [2]: 7780 nM
IC50 [3]: 7780 nM

Compound: Nc1ncnc2c1ncn2[C@@H]1O[C@H](CN(C/C=C/c2cccc(B(O)O)c2)CC[C@H](N)C(=O)O)[C@@H](O)[C@H]1O [GYZ-746]
IC50 [1]: 1660 nM

Compound: N#Cc1ccc(/C=C/CN(CCS(=O)(=O)F)C[C@H]2O[C@@H](n3cnc4c(N)ncnc43)[C@H](O)[C@@H]2O)cc1 [GYZ-748]
IC50 [2]: > 25000 nM
IC50 [3]: > 25000 nM

Compound: N#Cc1ccc(/C=C/CN(CC[C@H](N)C(=O)O)C[C@H]2O[C@@H](n3cnc4c(N)ncnc43)[C@H](O)[C@@H]2O)cc1C(N)=O [GYZ-755]
IC50 [1]: 29 nM and 28.7 nM

IC50 [2]: > 25000 nM
IC50 [3]: > 25000 nM
Compound: N#Cc1ccc(/C=C/CN(CCCCc2ccccc2)C[C@H]2O[C@@H](n3cnc4c(N)ncnc43)[C@H](O)[C@@H]2O)cc1 [GYZ-756]

Compound: Nc1ncnc2c1ncn2[C@@H]1O[C@H](CN(CC[C@H](N)C(=O)O)Cc2ccc(S(=O)(=O)F)cc2)[C@@H](O)[C@H]1O [GYZ-760]
IC50 (IC50 values (nM), Table 3, 1-carbon alkyl linkers): 5620 nM
IC50 (IC50 values (μM), Table 3, 1-carbon alkyl linkers): 5620 nM

IC50 [2]: > 25000 nM
IC50 [3]: > 25000 nM
Compound: CCNCCN(C/C=C/c1ccc(C#N)cc1)C[C@H]1O[C@@H](n2cnc3c(N)ncnc32)[C@H](O)[C@@H]1O [GYZ-761]

Compound: Nc1ncnc2c1ncn2[C@@H]1O[C@H](CN(C/C=C/c2cccc(S(=O)(=O)F)c2)CC[C@H](N)C(=O)O)[C@@H](O)[C@H]1O [GYZ-764]
IC50 [1]: 89 nM and 88.6 nM

IC50 [4]: 400 nM
IC50 [5]: 400 nM
Compound: Nc1ncnc2c1ncn2[C@@H]1O[C@H](CN(C/C=C/c2c(F)c(F)c(F)c(F)c2F)CC[C@H](N)C(=O)O)[C@@H](O)[C@H]1O [MH609]

IC50 [4]: 7.14 nM
IC50 [5]: 7 nM
Compound: N#Cc1c(F)c(F)c(/C=C/CN(CC[C@H](N)C(=O)O)C[C@H]2O[C@@H](n3cnc4c(N)ncnc43)[C@H](O)[C@@H]2O)c(F)c1F [MH610]

IC50 [4]: 363 nM
IC50 [5]: 363 nM
Compound: Nc1ncnc2c1ncn2[C@@H]1O[C@H](CN(C/C=C/c2cc(F)c(F)c(F)c2)CC[C@H](N)C(=O)O)[C@@H](O)[C@H]1O [MH611]

IC50 [4]: 1810 nM
IC50 [5]: 1810 nM
Compound: Nc1ncnc2c1ncn2[C@@H]1O[C@H](CN(C/C=C/c2c(F)c(F)cc(F)c2F)CC[C@H](N)C(=O)O)[C@@H](O)[C@H]1O [MH612]
